Key:
Cytochrome P450 2C9 = Cytochrome P450 2C9 (Homo sapiens, UniProt P11712); details: bti-tn-5b1-4; further: in other assays of this panel Not Active means under 50% inhibition at 10 µM
Adenosine receptor A1 = target: T1, Adenosine receptor A1 (Homo sapiens, UniProt P30542); format: cell membranes, CHO, Membrane;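 further: radioligand binding assay at the adenosine A1 receptor, with DPCPX serving as the labelled ligand; in other assays of this panel Not Active means under 50% inhibition at 10 µM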
T1 sequence (P30542 whole entry): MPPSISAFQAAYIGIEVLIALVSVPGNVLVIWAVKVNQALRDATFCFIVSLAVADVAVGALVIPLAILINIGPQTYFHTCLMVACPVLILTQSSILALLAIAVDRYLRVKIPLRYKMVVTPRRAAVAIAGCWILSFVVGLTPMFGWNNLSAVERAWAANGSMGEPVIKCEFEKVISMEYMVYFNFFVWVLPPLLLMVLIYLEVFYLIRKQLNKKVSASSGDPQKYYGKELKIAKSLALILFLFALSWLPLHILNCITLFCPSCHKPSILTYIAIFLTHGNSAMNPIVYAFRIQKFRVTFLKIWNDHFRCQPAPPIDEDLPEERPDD

[1] = DRUGMATRIX: Phosphodiesterase PDE3 enzyme inhibition (substrate: [3H]cAMP + cAMP); format: tissue-based, Homo sapiens; details: platelet; Not Active = under 50% inhibition at 10 µM
Cathepsin G = target: T2, Cathepsin G (Homo sapiens, UniProt P08311); format: tissue-based; details: neutrophil;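 further: inhibition of Cathepsin G enzyme activity, tested on an AMC-conjugated peptide substrate; in other assays of this panel Not Active means under 50% inhibition at 10 µM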
T2 sequence (P08311 whole entry): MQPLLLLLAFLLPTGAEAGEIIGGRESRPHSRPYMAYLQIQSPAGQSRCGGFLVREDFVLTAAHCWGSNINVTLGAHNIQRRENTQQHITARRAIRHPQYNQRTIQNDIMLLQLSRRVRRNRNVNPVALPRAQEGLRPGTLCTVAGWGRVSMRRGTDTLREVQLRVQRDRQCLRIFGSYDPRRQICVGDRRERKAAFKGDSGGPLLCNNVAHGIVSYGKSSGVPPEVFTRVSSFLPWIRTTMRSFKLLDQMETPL

[2] = target: Sigma non-opioid intracellular receptor 1 (Homo sapiens, UniProt Q99720); test: DRUGMATRIX: Sigma1 radioligand binding (ligand: [3H] Haloperidol); format: cell membranes, Jurkat, Membrane; details: Not Active = under 50% inhibition at 10 µM
Sigma non-opioid intracellular receptor 1, sequence (Q99720 whole entry): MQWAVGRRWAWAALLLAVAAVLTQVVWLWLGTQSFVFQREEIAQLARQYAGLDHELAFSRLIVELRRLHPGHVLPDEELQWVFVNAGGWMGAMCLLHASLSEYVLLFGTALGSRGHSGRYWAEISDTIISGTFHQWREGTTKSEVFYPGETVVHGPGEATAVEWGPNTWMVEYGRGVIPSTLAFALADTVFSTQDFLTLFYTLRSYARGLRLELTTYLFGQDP

Cannabinoid receptor 1 = Cannabinoid receptor 1 (Homo sapiens, UniProt P21554); format: cell membranes, Membrane; details: chem-1; further: in other assays of this panel Not Active means under 50% inhibition at 10 µM
Cannabinoid receptor 1, sequence (P21554 whole entry): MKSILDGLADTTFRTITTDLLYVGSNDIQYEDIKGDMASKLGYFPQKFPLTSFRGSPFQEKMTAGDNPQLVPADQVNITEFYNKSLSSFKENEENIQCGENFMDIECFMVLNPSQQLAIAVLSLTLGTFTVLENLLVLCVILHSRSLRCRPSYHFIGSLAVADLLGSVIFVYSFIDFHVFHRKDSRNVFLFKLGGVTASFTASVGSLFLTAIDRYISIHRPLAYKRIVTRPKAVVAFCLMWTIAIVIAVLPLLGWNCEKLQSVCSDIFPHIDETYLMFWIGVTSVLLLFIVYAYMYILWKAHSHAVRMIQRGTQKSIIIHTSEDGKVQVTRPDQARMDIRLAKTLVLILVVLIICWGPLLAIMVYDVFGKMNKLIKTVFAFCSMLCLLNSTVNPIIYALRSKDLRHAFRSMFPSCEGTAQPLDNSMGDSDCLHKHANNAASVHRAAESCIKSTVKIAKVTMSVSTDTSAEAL

Progesterone receptor = target: T3, Progesterone receptor (Bos taurus, UniProt Q690N0); test: DRUGMATRIX: Progesterone radioligand binding (ligand: [3H] R-5020); format: tissue-based, Uterus; details: Not Active = under 50% inhibition at 10 µM; for Ki: read-out: Ki
T3 sequence (Q690N0 whole entry): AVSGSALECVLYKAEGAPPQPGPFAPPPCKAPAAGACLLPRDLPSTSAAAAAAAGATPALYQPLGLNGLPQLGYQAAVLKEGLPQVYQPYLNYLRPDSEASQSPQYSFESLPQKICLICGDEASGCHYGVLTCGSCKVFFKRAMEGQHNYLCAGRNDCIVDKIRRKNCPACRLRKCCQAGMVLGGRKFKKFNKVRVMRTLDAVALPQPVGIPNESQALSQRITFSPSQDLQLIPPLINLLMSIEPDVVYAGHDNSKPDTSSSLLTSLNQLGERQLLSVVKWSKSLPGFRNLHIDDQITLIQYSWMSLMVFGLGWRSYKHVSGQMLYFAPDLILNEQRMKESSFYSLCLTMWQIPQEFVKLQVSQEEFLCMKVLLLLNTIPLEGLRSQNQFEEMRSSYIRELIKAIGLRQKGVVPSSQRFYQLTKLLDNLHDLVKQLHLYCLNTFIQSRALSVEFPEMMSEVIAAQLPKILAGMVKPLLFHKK

Cytochrome P450 2C9, sequence (P11712 whole entry): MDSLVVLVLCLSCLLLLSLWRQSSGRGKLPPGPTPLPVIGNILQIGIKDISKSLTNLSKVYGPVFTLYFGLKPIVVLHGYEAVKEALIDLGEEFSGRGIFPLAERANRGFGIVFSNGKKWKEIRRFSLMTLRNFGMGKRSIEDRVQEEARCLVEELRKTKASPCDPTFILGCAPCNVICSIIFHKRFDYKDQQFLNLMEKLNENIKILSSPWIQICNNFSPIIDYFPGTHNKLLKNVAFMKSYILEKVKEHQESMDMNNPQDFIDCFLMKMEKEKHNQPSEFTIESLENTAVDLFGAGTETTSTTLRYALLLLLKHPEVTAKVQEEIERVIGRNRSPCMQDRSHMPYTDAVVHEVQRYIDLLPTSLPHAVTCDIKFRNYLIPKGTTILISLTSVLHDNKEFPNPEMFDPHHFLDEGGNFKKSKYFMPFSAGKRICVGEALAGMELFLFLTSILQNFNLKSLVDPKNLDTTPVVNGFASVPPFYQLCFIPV

| Structure (SMILES) | IC50 (Cytochrome P450 2C9) | Ki (Cytochrome P450 2C9) | IC50 (Adenosine receptor A1; cho) | IC50 [1] | Ki [1] | IC50 (Cathepsin G) | IC50 ([2]; jurkat) | IC50 (Cannabinoid receptor 1) | IC50 (Progesterone receptor) | IC50 (Progesterone receptor; read-out: IC50) [nM] | Ki (Progesterone receptor) [nM] | IC50 (Adenosine receptor A1; read-out: IC50) [nM] | Ki (Adenosine receptor A1; read-out: Ki) [nM] | IC50 ([2]; read-out: IC50) [nM] | Ki ([2]; read-out: Ki) [nM] |
| --- | --- | --- | --- | --- | --- | --- | --- | --- | --- | --- | --- | --- | --- | --- | --- |
| CC(C)(C)NC(=O)[C@@H]1C[C@@H]2CCCC[C@@H]2CN1C[C@@H](O)[C@H](Cc1ccccc1)NC(=O)[C@H](CC(N)=O)NC(=O)c1ccc2ccccc2n1 | Not Active | Not Active | Not Active | Not Active | Not Active | Not Active | Not Active | Not Active | Not Active | – | – | – | – | – | – |
| CC(=O)[C@@]1(O)CC[C@H]2[C@@H]3C[C@H](C)C4=CC(=O)CC[C@]4(C)[C@H]3CC[C@@]21C | Not Active | Not Active | Not Active | Not Active | Not Active | Not Active | Not Active | Not Active | – | 711 | 93 | – | – | – | – |
| N[C@@H](Cc1ccc(N(CCCl)CCCl)cc1)C(=O)O | Not Active | Not Active | Not Active | Not Active | Not Active | Not Active | Not Active | Not Active | Not Active | – | – | – | – | – | – |
| CCCCc1oc2ccccc2c1C(=O)c1cc(I)c(OCCN(CC)CC)c(I)c1 [AMIODARONE] | – | – | Not Active | – | – | Not Active | – | Not Active | Not Active | – | – | – | – | – | – |
| OCCN(CCO)c1nc(N2CCCCC2)c2nc(N(CCO)CCO)nc(N3CCCCC3)c2n1 [DIPYRIDAMOLE] | – | – | Not Active | Not Active | Not Active | Not Active | Not Active | Not Active | Not Active | – | – | – | – | – | – |
| Cc1oncc1C(=O)Nc1ccc(C(F)(F)F)cc1 [LEFLUNOMIDE] | Not Active | Not Active | Not Active | Not Active | Not Active | Not Active | Not Active | Not Active | Not Active | – | – | – | – | – | – |
| c1ccc([C@H]2CN3CCSC3=N2)cc1 [LEVAMISOLE] | Not Active | Not Active | Not Active | Not Active | Not Active | Not Active | Not Active | Not Active | Not Active | – | – | – | – | – | – |
| N[C@@H](Cc1ccc(O)c(O)c1)C(=O)O [LEVODOPA] | Not Active | Not Active | Not Active | Not Active | Not Active | Not Active | Not Active | Not Active | Not Active | – | – | – | – | – | – |
| N[C@@H](Cc1cc(I)c(Oc2ccc(O)c(I)c2)c(I)c1)C(=O)O [LIOTHYRONINE] | – | – | – | – | – | Not Active | Not Active | Not Active | Not Active | – | – | 411 | 240 | – | – |
| O=NN(CCCl)C(=O)NC1CCCCC1 [LOMUSTINE] | Not Active | Not Active | Not Active | Not Active | Not Active | Not Active | Not Active | Not Active | Not Active | – | – | – | – | – | – |
| CCOC(=O)N1CCC(=C2c3ccc(Cl)cc3CCc3cccnc32)CC1 [LORATADINE] | – | – | Not Active | Not Active | Not Active | Not Active | Not Active | Not Active | Not Active | – | – | – | – | – | – |
| Cn1ccnc1S [METHIMAZOLE] | Not Active | Not Active | Not Active | Not Active | Not Active | Not Active | Not Active | Not Active | Not Active | – | – | – | – | – | – |
| CC[C@@H](CO)NC(=O)[C@@H]1C=C2c3cccc4[nH]cc(c34)C[C@H]2N(C)C1 [METHYLERGONOVINE] | Not Active | Not Active | Not Active | Not Active | Not Active | Not Active | Not Active | Not Active | Not Active | – | – | – | – | – | – |
| COc1nc(C)nc(Cl)c1NC1=NCCN1 [MOXONIDINE] | Not Active | Not Active | Not Active | Not Active | Not Active | Not Active | Not Active | Not Active | Not Active | – | – | – | – | – | – |
| COc1c(C)c2c(c(O)c1C/C=C(\C)CCC(=O)O)C(=O)OC2 [MYCOPHENOLIC ACID] | Not Active | Not Active | Not Active | Not Active | Not Active | Not Active | Not Active | Not Active | Not Active | – | – | – | – | – | – |
| O=c1ncn2nc(Sc3ccc(F)cc3F)ccc2c1-c1c(Cl)cccc1Cl [NEFLAMAPIMOD] | Not Active | Not Active | Not Active | Not Active | Not Active | Not Active | Not Active | Not Active | Not Active | – | – | – | – | – | – |
| CN1CCN(CCCN2c3ccccc3Sc3ccc(Cl)cc32)CC1 [PROCHLORPERAZINE] | Not Active | Not Active | Not Active | – | – | Not Active | – | Not Active | Not Active | – | – | – | – | 54 | 23 |
| CO[C@H]1/C=C/O[C@@]2(C)Oc3c(C)c(O)c4c(O)c(c(/C=N/N5CCN(C)CC5)c(O)c4c3C2=O)NC(=O)/C(C)=C\C=C\[C@H](C)[C@H](O)[C@@H](C)[C@@H](O)[C@@H](C)[C@H](OC(C)=O)[C@@H]1C [RIFAMPIN] | – | – | Not Active | Not Active | Not Active | Not Active | Not Active | Not Active | Not Active | – | – | – | – | – | – |
| Nc1nc2ccc(OC(F)(F)F)cc2s1 [RILUZOLE] | – | – | Not Active | Not Active | Not Active | Not Active | Not Active | Not Active | Not Active | – | – | – | – | – | – |
| Cc1nc2n(c(=O)c1CCN1CCC(c3noc4cc(F)ccc34)CC1)CCCC2 [RISPERIDONE] | Not Active | Not Active | Not Active | – | – | Not Active | – | Not Active | Not Active | – | – | – | – | – | – |
| C=CCC1(C(C)CCC)C(=O)NC(=O)NC1=O (stereo not given) [SECOBARBITAL] | Not Active | Not Active | Not Active | Not Active | Not Active | Not Active | Not Active | Not Active | Not Active | – | – | – | – | – | – |
| C[C@@H]1CN(c2c(F)c(N)c3c(=O)c(C(=O)O)cn(C4CC4)c3c2F)C[C@H](C)N1 [SPARFLOXACIN] | Not Active | Not Active | Not Active | Not Active | Not Active | Not Active | Not Active | Not Active | Not Active | – | – | – | – | – | – |
| Cc1noc(NS(=O)(=O)c2ccc(N)cc2)c1C [SULFISOXAZOLE] | Not Active | Not Active | Not Active | Not Active | Not Active | Not Active | Not Active | Not Active | Not Active | – | – | – | – | – | – |
| CSc1ccc(/C=C2/C(C)=C(CC(=O)O)c3cc(F)ccc32)cc1 [SULINDAC SULFIDE] | Not Active | Not Active | Not Active | Not Active | Not Active | Not Active | Not Active | Not Active | Not Active | – | – | – | – | – | – |
| CC/C(=C(\c1ccccc1)c1ccc(OCCN(C)C)cc1)c1ccccc1 [TAMOXIFEN] | – | – | – | – | – | Not Active | – | Not Active | – | 19800 | 2590 | – | – | – | – |
| NC[C@H]1CC[C@H](C(=O)O)CC1 [TRANEXAMIC ACID] | – | – | Not Active | Not Active | Not Active | Not Active | Not Active | Not Active | Not Active | – | – | – | – | – | – |
| Cc1c(C)c2c(c(C)c1O)CCC(C)(COc1ccc(CC3SC(=O)NC3=O)cc1)O2 (stereo not given) [TROGLITAZONE] | – | – | Not Active | Not Active | Not Active | Not Active | Not Active | Not Active | Not Active | – | – | – | – | – | – |

From ChEMBL document CHEMBL1909046, “DrugMatrix in vitro pharmacology data”
